test system: Pseudomonas; assay: Inhibition of adhesion of Pseudomonas strains P1, P2, P3 on canine corneocytes; assay type: cell-based; conditions: monosaccharides at 0.05% and 0.1% in PBS, vs positive control without monosaccharides (100%)
Protocol: A study comparing the inhibition, by monosaccharides, of the adhesion of three different strains of Pseudomonas, P1, P2, P3, was conducted on canine corneocytes. The three monosaccharides studied are respectively D-galactose, D-mannose and L-rhamnose.
The three strains of Psedomonas were taken from dogs with infectious otitis. Corneocytes were taken from six different healthy dogs using D-squame™-brand adhesive pads, sold by the CuDerm™ Company.
Bacterial suspensions were produced, each containing one of the three strains P1, P2 or P3, and PBS (phosphate-buffered saline) with or without monosaccharides at two concentrations (0.05% and 0.1%). These suspensions were each placed on a corneocyte layer. These layers were then incubated in a humidity chamber. After incubation, the corneocytes were washed and stained. The adherent Pseudomonas were then quantified by computer-assisted image analysis.
The percentage of adherence of the strains in the presence of monosaccharides was then calculated with respect to the percentage of adherence of the strains without monosaccharides (positive control).
The adherence percentages were compared for the three strains P1 to P3 with respect to the positive control (100%).

Going from `O=C[C@H](O)[C@@H](O)[C@@H](O)[C@H](O)CO` [D-galactose] to `O=C[C@@H](O)[C@@H](O)[C@H](O)[C@H](O)CO` [D-mannose], the “mean inhibition percentage for the three Pseudomonas strains” value falls from 25.6% to 19.4%.

For `C[C@H](O)[C@H](O)[C@@H](O)[C@@H](O)C=O` [L-rhamnose], the “mean inhibition percentage for the three Pseudomonas strains” value was 30.8%.

Source: patent US20110212908A1, “TOPICAL COMPOSITIONS AND THE USE THEREOF” (priority 2005, published 2011)
